Data published in US5578634A, “1H-indole-3-acetic acid hydrazide sPLA2 inhibitors” (Eli Lilly and Company, priority 1995, dated 1996).

Target: T1, human secreted PLA2 (Homo sapiens, UniProt P14555)
T1 sequence (P14555 21-144): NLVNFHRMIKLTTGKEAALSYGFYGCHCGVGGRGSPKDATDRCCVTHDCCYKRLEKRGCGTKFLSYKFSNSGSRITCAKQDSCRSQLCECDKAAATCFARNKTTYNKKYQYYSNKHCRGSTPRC
Assay: chromogenic assay of recombinant human secreted phospholipase A2 inhibition (Assay Example 1)
Assay type: biochemical
Details: mean of 3-5 tests; 40° C., 30 minutes, pH 7.5, 405 nanometers; read-out: Inhibition of human secreted PLA2 IC50 ± mean deviation (3-5 tests)
Description: The assay described herein has been adapted for high volume screening using 96 well microtiter plates. A general description of this assay method is found in the article, "Analysis of Human Synovial Fluid Phospholipase A2 on Short Chain Phosphatidylcholine-Mixed Micelles: Development of a Spectrophotometric Assay Suitable for a Microtiterplate Reader", by Laure J. Reynolds, Lori L. […] Reagents, the disclosure of which is incorporated herein by reference. REACTION BUFFER CaCl2.2H20 (1.47 g/L) KCl (7.455 g/L) Bovine Serum Albumin (fatty acid free) (1 g/L) (Sigma A-7030, product of Sigma Chemical Co. St. Louis Mo., USA) TRIS HCl (3.94 g/L) pH 7.5 (adjust with NaOH) ENZYME BUFFER […] 0.2 NaCl Adjust pH to 4.5 with acetic acid DTNB […] RACEMIC DIHEPTANOYL THIO - PC […] TRITON X-100™ prepare at 6.249 mg/ml in reaction buffer to equal […]. REACTION MIXTURE A measured volume of racemic dipheptanoyl thio PC supplied in chloroform at a concentration of 100 mg/ml is taken to dryness and redissolved in 10 millimolar TRITON X-100™ nonionic detergent aqueous solution. Reaction Buffer is added to the solution, then DTNB to give the Reaction Mixture. The reaction mixture thus obtained contains 1 mM diheptanoly thio-PC substrate, 0.29 mM Triton X-100™ detergent, and 0.12 mM DTMB in a buffered aqueous solution at pH 7.5. Assay Procedure: 1. Add 0.2 ml reaction mixture to all wells; 2. Add 10 ul test compound (or solvent blank) to appropriate wells, mix 20 seconds; 3. Add 50 nanograms of sPLA2 (10 microliters) to appropriate wells; 4. Incubate plate at 40° C. for 30 minutes; […] Read absorbance of wells at 405 nanometers with an automatic plate reader. All compounds were tested in triplicate. Typically, compounds were tested at a final concentration of 5 ug/ml. […] Lack of color development at 405 nanometers evidenced inhibition. Compounds initially found to be active were reassayed to confirm their activity and, if sufficiently active, IC50 values were determined. […] In all cases, % inhibition measured at 405 nanometers generated by enzyme reactions containing inhibitors relative to the uninhibited control reactions was determined. Each sample was titrated in triplicate and result values were averaged for plotting and calculation of IC50 values. […] IC50 values were determined at least three times for each compound tested.

Molecule	IC50 [µM]
Cc1c(CC(=O)NN)c2c(-c3ccccc3)cccc2n1Cc1ccccc1 [Example 55, 2-Methyl-4-phenyl-1-(phenylmethyl)-1H-indole-3-acetic acid hydrazide]	2.06 ± 0.94
COc1ccc2c(c1)c(CC(=O)NN)c([S+](C)[O-])n2Cc1ccccc1 (centres unmarked) [Example 46, 5-Methoxy-2-methylsulfinyl-1-(phenylmethyl)-1H-indole-3-acetic acid hydrazide]	46.1 ± 24.7
5-Methoxy-2-methyl-1-(phenylmethyl)-1H-indole-3-butanoic acid hydrazide [Example 67]	24.2 ± 10.7
CCCCCCCCCCn1c(C)c(CC(=O)NN)c2cc(OC)ccc21 [Example 14, 1-Decyl-5-methoxy-2-methyl-1H-indole-3-acetic acid hydrazide]	7.08 ± 1.61
COc1ccc2c(c1)c(CC(=O)NN)cn2Cc1ccccc1-c1ccccc1 [Example 12, 1-([1,1'-Biphenyl]-2-ylmethyl)-5-methoxy-1H-indole-3-acetic acid hydrazide]	5.49 ± 4.29
Cc1c(CC(=O)NN)c2ccccc2n1Cc1ccccc1 [Example 10, 2-Methyl-1-(phenylmethyl)-1H-indole-3-acetic acid hydrazide]	2.36 ± 0.5
5-Methoxy-2-methyl-1-(phenylmethyl)-1H-indole-3-propanoic acid hydrazide [Example 65]	32.6
COc1cccc(Cn2c(C)c(CC(=O)NN)c3cc(OC)ccc32)c1 [Example 27, 5-Methoxy-1-[(3-methoxyphenyl)methyl]-2-methyl-1H-indole-3-acetic acid hydrazide]	2.18 ± 0.51
COc1ccc2c(c1)c(CC(=O)NN)c(C)n2Cc1ccccn1 [Example 37, 5-Methoxy-2-methyl-1-[(2-pyridyl)methyl]-1H-indole-3-acetic acid hydrazide]	27.2 ± 7.89
COc1ccc(Cn2c(C)c(CC(=O)NN)c3cc(OC)ccc32)cc1 [Example 28, 5-Methoxy-1-[(4-methoxyphenyl)methyl]-2-methyl-1H-indole-3-acetic acid hydrazide]	11.7 ± 4.04
COc1ccc2c(c1)c(CC(=O)NN)c(C)n2CCCCc1ccccc1 [Example 42, 5-Methoxy-2-methyl-1-(4-phenylbutyl)-1H-indole-3-acetic acid hydrazide]	16.5 ± 3.58
COc1ccc2ccccc2c1Cn1c(C)c(CC(=O)NN)c2ccccc21 [Example 11, 1-(2-Methoxy-1-naphthalenylmethyl)-2-methyl-1H-indole-3-acetic acid hydrazide]	11.1 ± 1.8
COc1ccc2c(c1)c(CC(=O)NN)c(C)n2Cc1ccccc1OC [Example 26, 5-Methoxy-1-[(2-methoxyphenyl)methyl]-2-methyl-1H-indole-3-acetic acid hydrazide]	3.26 ± 1.74
COc1ccc2c(c1)c(CC(=O)NN)c(C)n2Cc1ccc2ccccc2n1 [Example 40, 5-Methoxy-2-methyl-1-[(2-quinolyl)methyl]-1H-indole-3-acetic acid hydrazide]	8.15 ± 3.27
Cc1c(CC(=O)NN)c2c(Br)cccc2n1Cc1ccccc1 [Example 53, 4-Bromo-2-methyl-1-(phenylmethyl)-1H-indole-3-acetic acid hydrazide]	2.06 ± 0.94
COc1ccc2c(c1)c(CC(=O)NN)c(C)n2C(C)c1ccccc1 (centres unmarked) [Example 36, 5-Methoxy-2-methyl-1-(1-phenylethyl)-1H-indole-3-acetic acid hydrazide]	5.32 ± 1.93
Cc1c(CC(=O)NN)c2cc(Cl)ccc2n1Cc1cccc(Cl)c1 [Example 49, 5-Chloro-[(3-chlorophenyl)methyl]-2-methyl-1H-indole-3-acetic acid hydrazide]	1.63 ± 0.74
COc1ccc2c(c1)c(CC(=O)NN)c(C)n2Cc1ccc(Cl)cc1 [Example 19, 1-(4-Chlorophenylmethyl)-5-methoxy-2-methyl-1H-indole-3-acetic acid hydrazide]	9.28 ± 2.06
COc1ccc2c(c1)c(CC(=O)NN)c(C)n2Cc1cc(Cl)ccc1Cl [Example 20, 1-(2,5-Dichlorophenylmethyl)-5-methoxy-2-methyl-1H-indole-3-acetic acid hydrazide]	9.39 ± 2.3
COc1ccc2c(c1)c(CC(=O)NN)c(C)n2Cc1ccc(O)cc1 [Example 33, 1-[(4-Hydroxyphenyl)methyl]-5-methoxy-2-methyl-1H-indole-3-acetic acid hydrazide]	5.96 ± 2.03
COc1ccc2c(c1)c(CC(=O)NN)c(C)n2CC(C)C [Example 13, 5-Methoxy-2-methyl-1-(2-methyl-1-propyl)-1H-indole-3-acetic acid hydrazide]	9.88 ± 3.41
CCCCCCCCCCCCCCCCCCn1c(C)c(CC(=O)NN)c2cc(OC)ccc21 [Example 15, 5-Methoxy-2-methyl-1-octadecyl-1H-indole-3-acetic acid hydrazide]	> 100
COc1ccc2c(c1)c(CC(=O)NN)c(C)n2Cc1cccc(N)c1 [Example 35, 1-[(3-Aminophenyl)methyl]-5-methoxy-2-methyl-1H-indole-3-acetic acid hydrazide]	7.12 ± 4.89
5-Methoxy-1-(phenylmethyl)-1H-indole-3-propanoic acid hydrazide [Example 64]	5.9 ± 2.99
COc1ccc2c(c1)c(CC(=O)NN)c(C)n2Cc1cccc([N+](=O)[O-])c1 [Example 34, 5-Methoxy-2-methyl-1-[(3-nitrophenyl)methyl]-1H-indole-3-acetic acid hydrazide]	15.2 ± 0.77

The next molecules have a lower IC50 than those just listed; values first:

IC50 [µM]	Molecule
0.6 ± 0.13	COc1ccc2c(c1)c(CC(=O)NN)c(SC)n2Cc1ccccc1 [Example 45, 5-Methoxy-2-methylthio-1-(phenylmethyl)-1H-indole-3-acetic acid hydrazide]
0.74 ± 0.15	Cc1c(CC(=O)NN)c2cc(Cl)ccc2n1Cc1ccccc1 [Example 48, 5-Chloro-2-methyl-1-(phenylmethyl)-1H-indole-3-acetic acid hydrazide]
1.02 ± 0.26	Cc1c(CC(=O)NN)c2ccc(Br)cc2n1Cc1ccccc1 [Example 54, 6-Bromo-2-methyl-1-(phenylmethyl)-1H-indole-3-acetic acid hydrazide]
0.84 ± 0.31	CCCCCCCCCCOc1cccc(Cn2c(C)c(CC(=O)NN)c3cc(OC)ccc32)c1 [Example 29, 1-[(3-Decyloxyphenyl)methyl]-5-methoxy-2-methyl-1H-indole-3-acetic acid hydrazide]
1.34 ± 0.44	Cc1c(CC(=O)NN)c2cc(Br)ccc2n1Cc1cccc(-c2ccccc2)c1 [Example 51, 1-([1,1'-biphenyl]-3-ylmethyl)-5-bromo-2-methyl-1H-indole-3-acetic acid hydrazide]
0.8 ± 0.25	CCOc1ccc2c(c1)c(CC(=O)NN)c(C)n2Cc1ccccc1 [Example 1, 5-Ethoxy-2-methyl-1-(phenylmethyl)-1H-indole-3-acetic acid hydrazide]
1.49 ± 0.34	Cc1c(CC(=O)NN)c2cc(F)ccc2n1Cc1ccccc1 [Example 47, 5-Fluoro-2-methyl-1-(phenylmethyl)-1H-indole-3-acetic acid hydrazide]
1.14 ± 0.44	Cc1c(CC(=O)NN)c2ccc(Cl)cc2n1Cc1ccccc1 [Example 8, 6-Chloro-2-methyl-1-(phenylmethyl)-1H-indole-3-acetic acid hydrazide]
1.54 ± 0.67	COc1ccc2c(c1)c(CC(=O)NN)c(C)n2Cc1cccc(C)c1 [Example 22, 5-Methoxy-1-[(3-methylphenyl)methyl]-2-methyl-1H-indole-3-acetic acid hydrazide]
0.86 ± 0.2	Cc1c(CC(=O)NN)c2cc(-c3ccccc3)ccc2n1Cc1ccccc1 [Example 56, 2-Methyl-5-phenyl-1-(phenylmethyl)-1H-indole-3-acetic acid hydrazide]
0.36 ± 0.17	Cc1c(CC(=O)NN)c2cc(OCc3ccc4ccccc4n3)ccc2n1Cc1ccccc1 [Example 62, 2-Methyl-1-(phenylmethyl)-5-[(2-quinolyl)methoxy]-1H-indole-3-acetic acid hydrazide]
0.89 ± 0.52	COc1ccc2c(c1)c(CC(=O)NN)c(C)n2Cc1cccc(C(F)(F)F)c1 [Example 23, 5-Methoxy-2-methyl-1-[(3-trifluoromethylphenyl)methyl]-1H-indole-3-acetic acid hydrazide]
1.02 ± 0.35	Cc1c(CC(=O)NN)c2cc(C(C)(C)C)ccc2n1Cc1ccccc1 [Example 60, 5-tert-Butyl-2-methyl-1-(phenylmethyl)-1H-indole-3-acetic acid hydrazide]
